Laboratory results reported in patent publication US20100292231A1, “Indazole Compounds for Treating Inflammatory Disorders, Demyelinating Disorders and Cancers” (priority 2007, published 2010).
Where two headings read alike, the source gives them in different places.

Columns and labels:
[1] = test system: Raw264.7 (murine macrophage-like cells); test: sulforhodamine B (SRB) cytotoxicity assay; assay type: cell-based; details: Mus musculus, Table 5 summary, read-out: IC50 SRB assay Raw 264.7
Procedure: (§1) The cytotoxic activity of compounds listed in Table 5 was determined with a sulforhodamine B (SRB) assay on panel of cell lines, including MdaMb231 (breast cancer), MV4-11 (leukemia), PC-3 (prostate cancer), U266B1 (multiple myeloma), C7 macrophages, and Raw264.7 (murine macrophage-like cells).
(§2) Cells growing in relevant media were seeded in a 96 well plate and left to adhere overnight. Cells were plated at appropriate cell densities: • MV4-11: 20.000 cells/well • Mda-Mb231: 6000 cells/well • C7: 10.000 cells/well • Raw264.7: 2000 cells/well • PC-3: 6000 cells/well • U266B1: 40.000 cells/well.
(§3) Cells were incubated before the compounds were added the next day to a top concentration of 100 μM and serially diluted 1 in 5 across the plate. After a 3 day incubation period (6 days for C7 and Raw264.7) cells were fixed with trichloroacetic acid (TCA) to end concentration of 10% for adherent cells and 16% end concentration for suspension cells for 1 hr at 4° C. before washing. Cells were stained with 0.4% sulforhodamine-B dye (SRB) in 1% acetic acid for 30 minutes and washed in 1% acetic acid. To solubilize the dye 100 μl 10 mM Tris, pH 10.5 was added and the absorbance was read at 564 nm. IC50 values were generated using the SoftMAX Pro™ software. The data is presented below in Tables 6 through 11.

FLT3 D835Y = target: T1, FLT3 D835Y (Homo sapiens, UniProt P36888, D835Y); test: Kinase EC50 (10 pt curve or estimate, ATP Kmapp); assay type: biochemical; details: from 10 pt curve or estimate based on 1 μm inhibition assay at ATP Kmapp
T1 construct: purchased Invitrogen (SelectScreen platform)
T1 sequence (P36888 27-993 D835Y): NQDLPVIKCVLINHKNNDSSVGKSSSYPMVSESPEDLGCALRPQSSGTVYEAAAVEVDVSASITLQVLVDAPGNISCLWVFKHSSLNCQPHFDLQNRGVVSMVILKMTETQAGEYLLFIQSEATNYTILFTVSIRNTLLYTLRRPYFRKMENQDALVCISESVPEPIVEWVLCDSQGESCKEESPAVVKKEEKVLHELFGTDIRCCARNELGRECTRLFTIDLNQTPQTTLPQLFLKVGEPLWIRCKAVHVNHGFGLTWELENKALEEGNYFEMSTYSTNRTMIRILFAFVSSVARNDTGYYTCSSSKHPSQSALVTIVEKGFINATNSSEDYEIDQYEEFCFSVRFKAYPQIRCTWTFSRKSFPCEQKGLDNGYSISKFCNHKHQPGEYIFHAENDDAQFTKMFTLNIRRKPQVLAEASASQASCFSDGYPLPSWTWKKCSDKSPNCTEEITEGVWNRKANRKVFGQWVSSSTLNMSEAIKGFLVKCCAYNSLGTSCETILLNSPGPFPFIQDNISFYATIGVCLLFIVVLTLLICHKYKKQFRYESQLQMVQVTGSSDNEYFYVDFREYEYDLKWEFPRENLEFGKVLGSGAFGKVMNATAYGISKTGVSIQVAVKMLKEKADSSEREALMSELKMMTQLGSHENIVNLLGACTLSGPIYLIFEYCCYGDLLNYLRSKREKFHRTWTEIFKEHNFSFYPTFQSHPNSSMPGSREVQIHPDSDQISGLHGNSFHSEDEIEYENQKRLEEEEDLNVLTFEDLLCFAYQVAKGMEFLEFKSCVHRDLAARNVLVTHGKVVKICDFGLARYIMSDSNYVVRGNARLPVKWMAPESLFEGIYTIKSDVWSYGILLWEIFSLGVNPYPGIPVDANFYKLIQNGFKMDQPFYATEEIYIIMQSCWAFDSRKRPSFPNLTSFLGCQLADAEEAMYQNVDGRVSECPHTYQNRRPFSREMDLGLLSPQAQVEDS

MLCK = target: T2, MLCK (Homo sapiens, UniProt Q9H1R3); test: Kinase EC50 (10 pt curve or estimate, ATP Kmapp); assay type: biochemical; details: from 10 pt curve or estimate based on 1 μm inhibition assay at ATP Kmapp
T2 construct: purchased Invitrogen (SelectScreen platform)

[2] = test system: MV4-11 (leukemia) cell line; test: sulforhodamine B (SRB) cytotoxicity assay; assay type: cell-based; details: Homo sapiens
Procedure: as §1, §2
as §3, with “After” for “Cells were incubated before the compounds were added the next day to a top concentration of 100 μM and serially diluted 1 in 5 across the plate. After”

MdaMb231 cells = test: in vitro scratch (cell migration) assay; assay type: cell-based; details: for concentration resulting in inhibition of cell motility / migration: Mda231 cells, after 48 hrs; for Migration: Table 5 summary, concentration inhibiting migration
Procedure: The in vitro scratch assay is used to determine the ability of cancer cells to migrate into and close an open wound; such migration is considered to have a role in metastasis of tumor cells.
Cells were plated in gelatin-coated 6-well plates and grown until a confluent monolayer was formed. When confluent, a straight scratch was made with a p200 pipette tip, cells were washed and compounds were added at concentrations of 1 μM, 2.5 μM, 5 μM, 10 μM and 20 μM. Images were taken at specific reference points at 0, 24 and 48 hours with Zeiss Axiovert 40 CFL microscope and Axiocam MRc5 camera and the ability of the cells to move in and close the wound was measured.
The data is presented in FIG. 1, which is a bar plot of percent cell migration into the “wound” in each sample (measured with respect to the control) and FIG. 2, which is a plot of percent wound confluence as a function of time (measured with respect to the control).

[3] = test system: MdaMb231 (breast cancer) cell line; test: sulforhodamine B (SRB) cytotoxicity assay; assay type: cell-based; details: Homo sapiens
Procedure: as §1, §2, §3

[4] = MV4-11, 72 h, 100 μM highest concentration, diluted 1:5, 3 day incubation, read-out: IC50 Measured Against MV4-11 Cell Line
[5] = MV4-11, Table 5 summary, read-out: IC50 SRB assay MV4-11
[6] = MDA-MB-231, 72 h, 100 μM highest concentration, diluted 1:5 (two series), 3 day incubation, read-out: IC50 Measured Against MdaMb231 Cell Line
[7] = MDA-MB-231, Table 5 summary, read-out: IC50 SRB assay Mda MB-231
[8] = MV4-11, 72 h, 50 μM highest concentration, diluted 1:4, 3 day incubation, read-out: IC50 Measured Against MV4-11 Cell Line

| EC50 (FLT3 D835Y) [nM] | EC50 (MLCK) [nM] | Structure (SMILES) | IC50 [1] [nM] | IC50 [2, 4] [nM] | IC50 [2, 5] [nM] | concentration resulting in inhibition of cell motility / migration (MdaMb231 cells) [µM] | Migration (MdaMb231 cells) [μm] | IC50 [3, 6] [nM] | IC50 [3, 7] [nM] | IC50 [2, 8] [nM] |
| --- | --- | --- | --- | --- | --- | --- | --- | --- | --- | --- |
| 11 | 52 | O=c1c2c(NCCCN3CCOCC3)ccc3ncn(c4ccc5[nH]ncc5c14)c32 [(X)] | 2.7 | 2 | 2 | 5 | 5 |  |  |  |
| 3 | 18 | CN(C)CCNc1ccc2ncn3c4ccc5[nH]ncc5c4c(=O)c1c23 [(XII)] | < 0.1 | < 1 | < 1 | 5 | >5 | 7400 | 7400 |  |
| 8 | 53 | CC(CCN1CCOCC1)Nc1ccc2ncn3c4ccc5[nH]ncc5c4c(=O)c1c23 (stereo not drawn) [(XVI)] | 25.7 | 121 | 121 | 5 | 1 | 5100 | 5100 |  |
| 5 | 9 | CN1CCN(CCCNc2ccc3ncn4c5ccc6[nH]ncc6c5c(=O)c2c34)CC1 [(XVII)] | 2.6 |  | 82 | 5 | 5 | 45300 | 45300 | 82 |
| 12 | 21 | CN(C)CCCNc1ccc2ncn3c4ccc5[nH]ncc5c4c(=O)c1c23 [Compound (IV)] | < 0.1 | < 1 | < 1 | 5 | 1 | 5400 | 5400 |  |
| 4 | 8 | CCN(CC)CCCNc1ccc2ncn3c4ccc5[nH]ncc5c4c(=O)c1c23 [Compound (XV)] | < 0.1 |  | < 1 | 1 | 1 | 4000 | 4000 | < 1 |

| Structure (SMILES) | EC50 (FLT3 D835Y) [nM] | EC50 (MLCK) [nM] | IC50 [1] [nM] | IC50 [2, 4] [nM] | IC50 [2, 5] [nM] | concentration resulting in inhibition of cell motility / migration (MdaMb231 cells) [µM] | Migration (MdaMb231 cells) [μm] | IC50 [3, 6] [nM] | IC50 [3, 7] [nM] | IC50 [2, 8] [nM] |
| --- | --- | --- | --- | --- | --- | --- | --- | --- | --- | --- |
| CCN(CC)CCNc1ccc2ncn3c4ccc(O)cc4c(=O)c1c23 [Symadex, 5-(2-(diethylamino)ethylamino)-8-hydroxy-6H-imidazo[4,5,1-de]acridin-6-one, reference compound] | 24 | 95 |  | 12 | 12 | 10 | 10 |  | 6800 | 28 |
